Experimental data: ChEMBL document CHEMBL5365447, “Pronucleotides of 2',3'-Dideoxy-2',3'-Didehydrothymidine as Potent Anti-HIV Compounds” (J Med Chem, 2023)
Activity calls are given as the source filed them. The calls are words filed in the database; no cut-off is given here.

What was measured:
[1] = Retention time of the compound by HPLC analysis; type: physicochemical
[2] = biological target: DNA polymerase beta (Homo sapiens) (UniProt P06746); test: Substrate activity at human DNA polymerase beta measured after 4 hrs by electrophoresis based primer extension assay
[3] = Prodrug conversion in pH 7.3 phosphate buffer assessed as ((2S,5R)-5-(5-methyl-2,4-dioxo-3,4-dihydropyrimidin-1(2H)-yl)-2,5-dihydrofuran-2-yl)methyl tri-hydrogen diphosphate formation by measuring half life in presence of pig liver esterase by HPLC analysis; type: ADME
[4] = biological target: T1, DNA polymerase subunit gamma-1 (Homo sapiens) (UniProt P54098); test: Substrate activity at human DNA polymerase gamma measured after 4 hrs by electrophoresis based primer extension assay
T1 sequence (whole entry): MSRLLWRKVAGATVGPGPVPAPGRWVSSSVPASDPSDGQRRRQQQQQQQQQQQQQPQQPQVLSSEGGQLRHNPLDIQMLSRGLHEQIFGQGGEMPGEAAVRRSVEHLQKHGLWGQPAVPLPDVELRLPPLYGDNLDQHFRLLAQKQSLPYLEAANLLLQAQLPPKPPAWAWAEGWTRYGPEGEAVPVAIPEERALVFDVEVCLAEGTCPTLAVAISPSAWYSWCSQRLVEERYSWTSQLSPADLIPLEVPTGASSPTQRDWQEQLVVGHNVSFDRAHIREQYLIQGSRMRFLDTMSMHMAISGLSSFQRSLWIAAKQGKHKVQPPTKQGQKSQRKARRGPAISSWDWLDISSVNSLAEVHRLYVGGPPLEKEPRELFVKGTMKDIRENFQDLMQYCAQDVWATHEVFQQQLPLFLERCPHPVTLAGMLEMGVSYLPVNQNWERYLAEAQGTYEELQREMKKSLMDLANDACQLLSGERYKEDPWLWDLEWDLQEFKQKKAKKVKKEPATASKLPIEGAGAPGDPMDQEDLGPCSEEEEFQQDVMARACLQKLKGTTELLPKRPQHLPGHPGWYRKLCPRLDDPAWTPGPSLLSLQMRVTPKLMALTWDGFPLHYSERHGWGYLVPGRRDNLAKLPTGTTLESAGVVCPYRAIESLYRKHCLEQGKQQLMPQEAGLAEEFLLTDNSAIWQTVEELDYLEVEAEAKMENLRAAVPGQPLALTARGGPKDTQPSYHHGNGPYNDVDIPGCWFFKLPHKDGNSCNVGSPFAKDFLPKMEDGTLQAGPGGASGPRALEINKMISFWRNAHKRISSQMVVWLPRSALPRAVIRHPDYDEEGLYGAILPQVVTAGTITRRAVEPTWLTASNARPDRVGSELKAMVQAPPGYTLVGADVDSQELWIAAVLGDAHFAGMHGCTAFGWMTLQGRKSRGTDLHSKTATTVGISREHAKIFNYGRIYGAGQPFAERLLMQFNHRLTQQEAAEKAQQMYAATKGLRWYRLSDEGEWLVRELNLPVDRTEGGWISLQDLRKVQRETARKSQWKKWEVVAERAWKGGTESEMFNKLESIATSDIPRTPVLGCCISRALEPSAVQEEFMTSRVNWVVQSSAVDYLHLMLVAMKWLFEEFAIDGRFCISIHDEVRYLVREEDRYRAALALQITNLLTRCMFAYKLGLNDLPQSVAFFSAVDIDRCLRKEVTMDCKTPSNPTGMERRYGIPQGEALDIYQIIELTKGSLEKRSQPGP

[5] = Prodrug conversion in human CEM/0 cell extract assessed as ((2S,5R)-5-(5-methyl-2,4-dioxo-3,4-dihydropyrimidin-1(2H)-yl)-2,5-dihydrofuran-2-yl)methyl tri-hydrogen diphosphate formation by HPLC analysis; type: ADME; settings: ccrf-cem
[6] = Chemical stability of the compound in phosphate buffer saline assessed as half life at pH 7.3 by HPLC analysis; type: physicochemical; settings: phosphate buffered saline
[7] = Prodrug conversion in human CEM/0 cell extract assessed as metabolite formation by measuring half life by HPLC analysis; type: ADME; settings: ccrf-cem
[8] = system: Human immunodeficiency virus 2; test: Antiviral activity against HIV-2 ROD infected in wild-type human CEM/0 cells assessed as inhibition of virus-induced cytopathic effect incubated for 4 to 5 days by light microscopic analysis; type: functional, organism-based; settings: Human immunodeficiency virus 2, ROD, CCRF-CEM
[9] = system: Human immunodeficiency virus 1; test: Antiviral activity against HIV-1 HE infected in wild-type human CEM/0 cells assessed as inhibition of virus-induced cytopathic effect incubated for 4 to 5 days by light microscopic analysis; type: functional, organism-based; settings: Human immunodeficiency virus 1, HE, CCRF-CEM
[10] = Cytotoxicity against human CEM cells assessed as reduction in cell viability incubated for 4 to 5 days by light microscopic analysis; type: toxicity, cell-based; settings: CEM cells (CCRF-CEM), time 4-5 day
[11] = system: Human immunodeficiency virus 2; test: Antiviral activity against HIV-2 ROD infected in thymidine kinase-deficient human CEM cells assessed as inhibition of virus-induced cytopathic effect incubated for 4 to 5 days by light microscopic analysis; type: functional, organism-based; settings: Human immunodeficiency virus 2, ROD, CCRF-CEM
[12] = biological target: T2, DNA polymerase alpha catalytic subunit (Homo sapiens) (UniProt P09884); test: Substrate activity at human DNA polymerase alpha measured after 4 hrs by electrophoresis based primer extension assay
T2 sequence (whole entry): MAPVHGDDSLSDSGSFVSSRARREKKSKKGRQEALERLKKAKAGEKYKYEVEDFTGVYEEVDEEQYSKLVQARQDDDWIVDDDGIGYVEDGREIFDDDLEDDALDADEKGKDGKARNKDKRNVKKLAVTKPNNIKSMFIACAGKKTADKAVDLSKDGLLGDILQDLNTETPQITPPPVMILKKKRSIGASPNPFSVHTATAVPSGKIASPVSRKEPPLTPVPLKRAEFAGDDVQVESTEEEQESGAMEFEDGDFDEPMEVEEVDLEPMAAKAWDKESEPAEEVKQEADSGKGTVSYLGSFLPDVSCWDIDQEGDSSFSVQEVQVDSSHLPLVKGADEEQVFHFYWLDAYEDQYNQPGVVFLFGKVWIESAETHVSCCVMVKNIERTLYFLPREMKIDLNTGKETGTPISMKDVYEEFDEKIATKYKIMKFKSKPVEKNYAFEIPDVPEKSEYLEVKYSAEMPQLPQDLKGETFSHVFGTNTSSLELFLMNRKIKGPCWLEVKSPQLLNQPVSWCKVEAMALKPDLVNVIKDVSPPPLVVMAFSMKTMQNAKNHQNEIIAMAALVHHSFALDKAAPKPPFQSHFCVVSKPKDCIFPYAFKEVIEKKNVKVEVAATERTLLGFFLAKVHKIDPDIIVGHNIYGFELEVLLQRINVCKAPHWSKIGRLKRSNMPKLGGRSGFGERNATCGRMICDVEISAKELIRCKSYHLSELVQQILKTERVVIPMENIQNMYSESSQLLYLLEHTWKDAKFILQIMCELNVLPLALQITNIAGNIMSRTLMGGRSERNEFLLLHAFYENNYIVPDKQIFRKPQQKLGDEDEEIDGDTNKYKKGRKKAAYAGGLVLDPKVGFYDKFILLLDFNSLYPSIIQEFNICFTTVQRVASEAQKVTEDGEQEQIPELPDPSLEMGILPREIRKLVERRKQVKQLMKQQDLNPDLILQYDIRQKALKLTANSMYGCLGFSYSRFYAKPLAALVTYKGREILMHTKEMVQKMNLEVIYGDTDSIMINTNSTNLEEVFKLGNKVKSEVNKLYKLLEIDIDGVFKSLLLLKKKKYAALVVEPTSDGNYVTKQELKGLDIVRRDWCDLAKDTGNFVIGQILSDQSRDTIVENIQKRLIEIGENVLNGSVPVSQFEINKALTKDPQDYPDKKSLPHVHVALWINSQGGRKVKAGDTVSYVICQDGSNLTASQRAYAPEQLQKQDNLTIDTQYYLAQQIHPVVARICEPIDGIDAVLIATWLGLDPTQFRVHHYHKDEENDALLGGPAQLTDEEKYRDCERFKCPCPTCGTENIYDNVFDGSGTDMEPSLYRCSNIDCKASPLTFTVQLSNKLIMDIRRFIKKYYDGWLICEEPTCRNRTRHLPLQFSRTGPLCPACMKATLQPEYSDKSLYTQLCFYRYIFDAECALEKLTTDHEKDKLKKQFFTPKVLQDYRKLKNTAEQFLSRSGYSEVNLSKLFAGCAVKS

[13] = Selectivity index, ratio of CC50 for human CEM cells to EC50 for HIV-2 ROD infected in thymidine kinase-deficient human CEM cells; type: toxicity; settings: read-out: Ratio CC50/EC50
[14] = Prodrug conversion in pH 7.3 phosphate buffer assessed as metabolite formation by measuring half life in presence of pig liver esterase by HPLC analysis; type: ADME; settings: isolated protein
[15] = system: Human immunodeficiency virus; test: Substrate activity at HIV reverse transcriptase measured after 4 hrs by electrophoresis based primer extension assay

SMILES | Retention_time [1] [min] | Activity [2] | t1/2 [3] [h] | Activity [4] | Drug metabolism [5] | half-life [6] [days] | t1/2 [7] [h] | EC50 [8] [nM] | EC50 [9] [nM] | EC50 [11] [nM] | Activity [12] | Activity [15] | Drug metabolism [7] | CC50 [10] [nM] | selectivity ratio [13] | t1/2 [14] [h] | Drug metabolism [14]
CCCCCCCCCCCCOP(=O)(O)OP(=O)(O)OC[C@@H]1C=C[C@H](n2cc(C)c(=O)[nH]c2=O)O1.N.N | 12.6 | inactive | > 150 | inactive | Metabolite_Notdetected | > 125 | > 30 | 190 | 560 | 11000 | inactive | – | – | > 100000 | > 9 | – | –
CCCCCCCCCCCCP(=O)(OCc1ccc(OC(=O)CCCCCCCCCCC)cc1)OP(=O)(O)OC[C@@H]1C=C[C@H](n2cc(C)c(=O)[nH]c2=O)O1.N (stereo partly drawn) | 20.6 | – | – | – | – | > 83.3 | 3 | 60 | 130 | 10 | – | – | – | 41100 | 4110 | 0.27 | –
CCCCCCCCCCCCCCCCCCP(=O)(OCc1ccc(OC(=O)CCCC)cc1)OP(=O)(O)OC[C@@H]1C=C[C@H](n2cc(C)c(=O)[nH]c2=O)O1.N (stereo partly drawn) | 20 | – | – | – | – | > 83.3 | > 8 | 42 | 44 | 2 | – | – | – | 14600 | 7290 | 0.25 | –
CCCCCCCCCCCCP(=O)(OCc1ccc(OC(=O)CCCC)cc1)OP(=O)(O)OC[C@@H]1C=C[C@H](n2cc(C)c(=O)[nH]c2=O)O1.N (stereo partly drawn) | 16.3 | – | – | – | – | 29.2 | – | 420 | 560 | 760 | – | – | Metabolite_Notdetected | 66700 | 88 | – | Metabolite_Notdetected
Cc1cn([C@H]2C=C[C@@H](COP(=O)(O)OP(=O)(O)O)O2)c(=O)[nH]c1=O | – | – | – | – | – | – | – | – | – | – | – | Active | – | – | – | – | –
COP(=O)(O)OP(=O)(O)OC[C@@H]1C=C[C@H](n2cc(C)c(=O)[nH]c2=O)O1.N.N | 8.9 | inactive | > 150 | inactive | Metabolite_Notdetected | > 125 | – | 180 | 520 | 40400 | inactive | – | Metabolite_Notdetected | > 100000 | > 2 | – | –
CCCCOP(=O)(O)OP(=O)(O)OC[C@@H]1C=C[C@H](n2cc(C)c(=O)[nH]c2=O)O1.N.N | 9.4 | inactive | > 150 | inactive | Metabolite_Notdetected | > 125 | > 30 | 420 | 720 | 43200 | inactive | – | – | > 100000 | > 2 | – | –

The next lines start with results.

Retention_time [1] [min] | Activity [2] | t1/2 [3] [h] | Activity [4] | Drug metabolism [5] | half-life [6] [days] | t1/2 [7] [h] | EC50 [8] [nM] | EC50 [9] [nM] | EC50 [11] [nM] | Activity [12] | Activity [15] | Drug metabolism [7] | SMILES | CC50 [10] [nM] | selectivity ratio [13] | t1/2 [14] [h] | Drug metabolism [14]
12.5 | – | – | – | – | 5.46 | 0.36 | 170 | 440 | 19200 | – | – | – | CCCCOP(=O)(OCc1ccc(OC(=O)CCCC)cc1)OP(=O)(O)OC[C@@H]1C=C[C@H](n2cc(C)c(=O)[nH]c2=O)O1.N (stereo partly drawn) | > 100000 | > 5 | < 0.01 | –
15.1 | inactive | > 150 | inactive | Metabolite_Notdetected | > 125 | > 13 | 68 | 330 | 1 | inactive | inactive | – | CCCCCCCCCCCCCCCCCCOP(=O)(O)OP(=O)(O)OC[C@@H]1C=C[C@H](n2cc(C)c(=O)[nH]c2=O)O1.N.N | > 100000 | > 62500 | – | –
20.9 | – | – | – | – | 15.5 | 4.5 | 120 | 120 | 48 | – | – | – | CCCCCCCCCCCCOP(=O)(OCc1ccc(OC(=O)CCCCCCCCCCC)cc1)OP(=O)(O)OC[C@@H]1C=C[C@H](n2cc(C)c(=O)[nH]c2=O)O1.N (stereo partly drawn) | 48400 | 1010 | 0.67 | –
16.6 | – | – | – | – | 11.6 | – | 53 | 230 | 750 | – | – | Metabolite_Notdetected | CCCCCCCCCCCC(=O)Oc1ccc(COP(=O)(OCCCC)OP(=O)(O)OC[C@@H]2C=C[C@H](n3cc(C)c(=O)[nH]c3=O)O2)cc1.N (stereo partly drawn) | 83100 | 111 | – | Metabolite_Notdetected
